Test results: patent US20230257385A1, “SALT AND SOLID FORMS OF TABERNANTHALOG” (priority 2021, published 2023)
Where a name gives a salt, the structure may show the parent alone.

Experiments:
Assay type in all cases: physicochemical
[1] = Equilibrium humidity evaluation 75% RH/40° C., 10 days (Example 8, Experiment 6); conditions: for change in chemical purity (trended HPLC): after 10 days; for powder diffraction pattern versus input (form stability): t=5 days and t=10 days
Outline: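 Tabernanthalog salt powders (100 mg) were spread evenly in open vials and held at 40 °C and 75% RH. Sub-samples taken at 5 and 10 days were analysed by ^1H NMR, HPLC, XRPD, DSC, TGA and PLM for phase change, chemical degradation and residual solvent.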

[2] = SIF buffer solubility panel (FaSSIF, FeSSIF, FaSSGF)
[3] = Qualitative solubility screen of Tabernanthalog sorbate salt (Example 10, Experiment 2)
Experimental: The qualitative solubility screen was carried out to determine the range of solvents incorporated into future suspension equilibration panels. Products that crystallised were centrifuged and analysed as wet pellet by XRPD, dried under reduced pressure and re-analysed by XRPD, with selected samples further analysed by TGA and ^1H NMR spectroscopy.
If insoluble at 5 vol, the solvent quantity was increased to 10 vol, 15 vol and 20 vol of the respective solvent. The suspensions that occurred upon cooling down were centrifuged and the solvent wet pellets were analysed by XRPD.
The insoluble suspensions were additionally worked up for XRPD analysis. The resultant powder patterns were subsequently cross-referenced against the input supplied material.

[4] = 75% RH/40° C., listed as Tabernanthalog sorbate salt (Form A)
[5] = Acetone/Water (5% v/v, 0.5 aw), 5 vol

With `COc1ccc2c3c([nH]c2c1)CCN(C)CC3` [tabernanthalog sorbate salt] the “CP (chemical purity) after storage” value ([1]; 75% RH at 40° C., 10 days) was 99.70 % area, the “change in chemical purity (trended HPLC)” value ([1]; 75% RH/40° C.) was “did not reduce significantly” and the “change in chemical purity (trended HPLC)” value [1, 4] was “lowest decrease in chemical purity”. The “change in chemical purity (trended HPLC)” value ([1]; 75% RH/40° C., listed as tabernanthalog sorbate) was “lowest decrease in chemical purity”, the “water uptake / hydrate formation (TGA, DSC)” value ([1]; 75% RH/40° C., t=5 d and t=10 d) was “did not exhibit any water absorption events” and the “powder diffraction pattern versus input (form stability)” value ([1]; 75% RH/40° C.) was “matched the diffractogram of the input material”. For the same molecule, the “powder diffraction pattern versus input (form stability)” value [1, 4] was “Form A was stable”, the “Tabernanthalog RRT = 1.00 (trended HPLC data, chemical purity)” value ([1]; Sorbate salt, input before humidity exposure) was 99.76 and the “CP (chemical purity) before storage” value ([1]; input of 6-D) was 99.76 % area. For the same molecule, the “solubility in FaSSGF” value ([2]; FaSSGF, 37° C., up to 24 h (timepoints t=0, 1 h, 3 h, 6 h, 24 h)) was “remained suspended”, the “disproportionation in the SIF buffers” value ([2]; SIF buffers) was “no observed disproportionation” and the “solubility in the SIF buffers” value ([2]; SIF buffers overall) was “highly soluble in the SIF buffers (apart from FaSSGF)”. For the same molecule, the Solid on cooling ([3]; 2-Propanol, 5 vol) was “✓”, the Solution at reflux ([3]; 2-Propanol, 5 vol) was “✓” and the Solid on cooling ([3]; 2-Propanol, 10 vol) was “✓”. For the same molecule, the Solution at reflux ([3]; 2-Propanol, 10 vol) was “✓”, the Solid on cooling ([3]; 2-Propanol, 15 vol) was “✓” and the Solution at reflux ([3]; 2-Propanol, 15 vol) was “✓”. The Solid on cooling ([3]; 2-Propanol, 20 vol) was “✓”, the Solution at reflux ([3]; 2-Propanol, 20 vol) was “✓” and the Solid on cooling ([3]; Acetone, 10 vol) was “✓”. For the same molecule, the Solution at reflux ([3]; Acetone, 10 vol) was “✓”, the Solid on cooling ([3]; Acetone, 15 vol) was “✓” and the Solution at reflux ([3]; Acetone, 15 vol) was “✓”. The Solid on cooling ([3]; Acetone, 20 vol) was “✓”, the Solution at reflux ([3]; Acetone, 20 vol) was “✓” and the Solid on cooling [3, 5] was “✓”. The “Solution at 40° C.” value [3, 5] was “✓”, the Solid on cooling ([3]; Chlorobenzene, 5 vol) was “✓” and the Solution at reflux ([3]; Chlorobenzene, 5 vol) was “✓”. For the same molecule, the Solid on cooling ([3]; Chlorobenzene, 10 vol) was “✓”, the Solution at reflux ([3]; Chlorobenzene, 10 vol) was “✓” and the Solid on cooling ([3]; Chlorobenzene, 15 vol) was “✓”. For the same molecule, the Solution at reflux ([3]; Chlorobenzene, 15 vol) was “✓”, the Solid on cooling ([3]; Chlorobenzene, 20 vol) was “✓” and the “Solution at 20° C.” value ([3]; Chlorobenzene, 20 vol) was “×”. For the same molecule, the Solution at reflux ([3]; Chlorobenzene, 20 vol) was “✓”, the Solid on cooling ([3]; DCM, 5 vol) was “✓” and the Solution at reflux ([3]; DCM, 5 vol) was “✓”. For the same molecule, the Solid on cooling ([3]; DCM, 10 vol) was “✓”, the “Solution at 40° C.” value ([3]; DCM, 10 vol) was “✓” and the “Solution at 40° C.” value ([3]; DCM, 15 vol) was “✓”. For the same molecule, the Solid on cooling ([3]; EtOAc, 5 vol) was “✓”, the Solution at reflux ([3]; EtOAc, 5 vol) was “✓” and the Solid on cooling ([3]; EtOAc, 10 vol) was “✓”. The Solution at reflux ([3]; EtOAc, 10 vol) was “✓”, the Solid on cooling ([3]; EtOAc, 15 vol) was “✓” and the Solution at reflux ([3]; EtOAc, 15 vol) was “✓”. For the same molecule, the Solid on cooling ([3]; EtOAc, 20 vol) was “✓”, the Solution at reflux ([3]; EtOAc, 20 vol) was “✓” and the Solid on cooling ([3]; EtOH, 5 vol) was “✓”. The Solution at reflux ([3]; EtOH, 5 vol) was “✓”, the Solid on cooling ([3]; EtOH, 10 vol) was “✓” and the “Solution at 40° C.” value ([3]; EtOH, 10 vol) was “✓”. The “Solution at 40° C.” value ([3]; EtOH, 15 vol) was “✓”, the “Solution at 20° C.” value ([3]; Ethanol/Water (15% v/v, 0.5 aw), 5 vol) was “✓” and the Solid on cooling ([3]; Ethyl formate, 5 vol) was “✓”. For the same molecule, the Solution at reflux ([3]; Ethyl formate, 5 vol) was “✓”, the Solid on cooling ([3]; Ethyl formate, 10 vol) was “✓” and the Solution at reflux ([3]; Ethyl formate, 10 vol) was “✓”. For the same molecule, the Solid on cooling ([3]; Ethyl formate, 15 vol) was “✓”, the Solution at reflux ([3]; Ethyl formate, 15 vol) was “✓” and the Solid on cooling ([3]; Ethyl formate, 20 vol) was “✓”. The Solution at reflux ([3]; Ethyl formate, 20 vol) was “✓”, the Solution at reflux ([3]; Heptane, 10 vol) was “Oiled” and the “Solution at 40° C.” value ([3]; Isopropanol/Water (12%, v/v, 0.5 aw), 5 vol) was “✓”. For the same molecule, the Solid on cooling ([3]; Isopropyl acetate, 5 vol) was “✓”, the Solution at reflux ([3]; Isopropyl acetate, 5 vol) was “✓” and the Solid on cooling ([3]; Isopropyl acetate, 10 vol) was “✓”. The Solution at reflux ([3]; Isopropyl acetate, 10 vol) was “✓”, the Solid on cooling ([3]; Isopropyl acetate, 15 vol) was “✓” and the Solution at reflux ([3]; Isopropyl acetate, 15 vol) was “✓”. For the same molecule, the Solid on cooling ([3]; Isopropyl acetate, 20 vol) was “✓”, the Solution at reflux ([3]; Isopropyl acetate, 20 vol) was “✓” and the Solid on cooling ([3]; MEK, 5 vol) was “✓”. For the same molecule, the Solution at reflux ([3]; MEK, 5 vol) was “✓”, the Solid on cooling ([3]; MEK, 10 vol) was “✓” and the Solution at reflux ([3]; MEK, 10 vol) was “✓”. For the same molecule, the Solid on cooling ([3]; MEK, 15 vol) was “✓”, the Solution at reflux ([3]; MEK, 15 vol) was “✓” and the Solid on cooling ([3]; MEK, 20 vol) was “✓”. For the same molecule, the “Solution at 40° C.” value ([3]; MEK, 20 vol) was “✓”, the Solid on cooling ([3]; MeCN, 5 vol) was “✓” and the Solution at reflux ([3]; MeCN, 5 vol) was “✓”. The Solid on cooling ([3]; MeCN, 10 vol) was “✓”, the Solution at reflux ([3]; MeCN, 10 vol) was “✓” and the Solid on cooling ([3]; MeCN, 15 vol) was “✓”. For the same molecule, the Solution at reflux ([3]; MeCN, 15 vol) was “✓”, the Solid on cooling ([3]; MeCN, 20 vol) was “✓” and the Solution at reflux ([3]; MeCN, 20 vol) was “✓”. The “Solution at 20° C.” value ([3]; MeOH, 5 vol) was “✓”, the Solid on cooling ([3]; MeTHF, 5 vol) was “✓” and the Solution at reflux ([3]; MeTHF, 5 vol) was “✓”. For the same molecule, the Solid on cooling ([3]; MeTHF, 10 vol) was “✓”, the Solution at reflux ([3]; MeTHF, 10 vol) was “✓” and the Solid on cooling ([3]; MeTHF, 15 vol) was “✓”. For the same molecule, the Solution at reflux ([3]; MeTHF, 15 vol) was “✓”, the Solid on cooling ([3]; MeTHF, 20 vol) was “✓” and the Solution at reflux ([3]; MeTHF, 20 vol) was “✓”. For the same molecule, the Solid on cooling ([3]; Methyl acetate, 10 vol) was “✓”, the Solution at reflux ([3]; Methyl acetate, 10 vol) was “✓” and the Solid on cooling ([3]; Methyl acetate, 15 vol) was “✓”. The Solution at reflux ([3]; Methyl acetate, 15 vol) was “✓”, the Solid on cooling ([3]; Methyl acetate, 20 vol) was “✓” and the Solution at reflux ([3]; Methyl acetate, 20 vol) was “✓”. The Solid on cooling ([3]; Nitromethane, 5 vol) was “✓”, the Solution at reflux ([3]; Nitromethane, 5 vol) was “✓” and the Solid on cooling ([3]; Nitromethane, 10 vol) was “✓”. For the same molecule, the Solution at reflux ([3]; Nitromethane, 10 vol) was “✓”, the Solid on cooling ([3]; Nitromethane, 15 vol) was “✓” and the Solution at reflux ([3]; Nitromethane, 15 vol) was “✓”. For the same molecule, the Solid on cooling ([3]; Nitromethane, 20 vol) was “✓”, the Solution at reflux ([3]; Nitromethane, 20 vol) was “✓” and the Solid on cooling ([3]; THF, 5 vol) was “✓”. The Solution at reflux ([3]; THF, 5 vol) was “✓”, the Solution at reflux ([3]; THF, 10 vol) was “✓” and the Solid on cooling ([3]; Toluene, 5 vol) was “✓”. For the same molecule, the Solution at reflux ([3]; Toluene, 5 vol) was “✓”, the Solid on cooling ([3]; Toluene, 10 vol) was “✓” and the Solution at reflux ([3]; Toluene, 10 vol) was “✓”. For the same molecule, the Solid on cooling ([3]; Toluene, 15 vol) was “✓”, the Solution at reflux ([3]; Toluene, 15 vol) was “✓” and the Solid on cooling ([3]; Toluene, 20 vol) was “✓”. The Solution at reflux ([3]; Toluene, 20 vol) was “✓”, the Solid on cooling ([3]; Water, 5 vol) was “✓” and the Solution at reflux ([3]; Water, 5 vol) was “✓”. For the same molecule, the Solution at reflux ([3]; Water, 10 vol) was “✓”.
